The source of these data is patent US20040156869A1, “2-substituted quinazolin-4-ylamine analogues” (Neurogen Corporation, priority 2002, published 2004).

pKi: −log10 of the molar value. A value given as a limit tells only on which side of the number the result lay.

Chain of human capsaicin receptor (VR1) (Q8NER1 whole entry): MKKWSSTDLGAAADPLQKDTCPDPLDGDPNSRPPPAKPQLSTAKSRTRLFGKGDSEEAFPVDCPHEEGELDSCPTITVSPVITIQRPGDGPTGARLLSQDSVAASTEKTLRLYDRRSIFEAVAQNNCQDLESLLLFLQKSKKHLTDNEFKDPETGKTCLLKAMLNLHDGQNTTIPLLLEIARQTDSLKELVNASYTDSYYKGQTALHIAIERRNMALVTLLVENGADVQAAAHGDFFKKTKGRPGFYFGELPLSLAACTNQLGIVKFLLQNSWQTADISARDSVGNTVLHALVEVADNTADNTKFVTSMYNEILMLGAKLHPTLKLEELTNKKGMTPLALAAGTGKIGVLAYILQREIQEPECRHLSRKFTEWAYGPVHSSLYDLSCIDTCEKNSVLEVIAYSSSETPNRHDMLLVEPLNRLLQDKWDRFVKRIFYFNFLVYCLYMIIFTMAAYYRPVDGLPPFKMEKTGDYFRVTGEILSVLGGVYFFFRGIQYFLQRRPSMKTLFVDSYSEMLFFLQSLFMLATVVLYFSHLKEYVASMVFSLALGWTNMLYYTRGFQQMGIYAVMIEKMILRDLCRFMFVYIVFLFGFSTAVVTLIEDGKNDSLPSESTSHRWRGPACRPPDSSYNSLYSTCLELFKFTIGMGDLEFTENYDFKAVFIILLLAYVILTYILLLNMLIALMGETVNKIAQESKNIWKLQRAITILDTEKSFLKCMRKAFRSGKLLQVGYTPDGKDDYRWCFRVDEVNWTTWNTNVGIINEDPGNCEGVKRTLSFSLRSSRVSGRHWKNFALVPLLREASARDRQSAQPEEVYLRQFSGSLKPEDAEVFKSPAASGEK

This test concerns the target human capsaicin receptor (VR1) (Homo sapiens, UniProt Q8NER1). As to the kind of experiment: Capsaicin receptor binding assay ([3H]RTX competition, VR1-transfected HEK293 membranes).
`CC(C)(C)c1ccc(Nc2nc(CN3CCC[C@H]3C(=O)O)nc3cc(-c4ncccc4C(F)(F)F)cnc23)cc1` [Compound 752, (S)-1-[4-(4-tert-Butyl-phenylamino)-7-(3-trifluoromethyl-pyridin-2-yl)-pyrido[3,2-d]pyrimidin-2-ylmethyl]-pyrrolidine-2-carboxylic acid]: the pKi (usually the negative decadic logarithm of the Ki, by convention in mol/L) is greater than 6.00. For the compound `CCCN(CCO)Cc1nc(Nc2ccc(C(C)(C)C)cc2)c2ccc(-c3ncccc3C(F)(F)F)cc2n1` [Compound 754, 2-{[4-(4-tert-Butyl-phenylamino)-7-(3-trifluoromethyl-pyridin-2-yl)-quinazolin-2-ylmethyl]-propyl-amino}-ethanol], the negative logarithm of the Ki (pKi) was greater than 6.00.

Consider `CC(C)(C)c1ccc(Nc2nc(CN3CCCC3CO)nc3cc(-c4ncccc4C(F)(F)F)ccc23)cc1` (centres unmarked) [Compound 755, {1-[4-(4-tert-Butyl-phenylamino)-7-(3-trifluoromethyl-pyridin-2-yl)-quinazolin-2-ylmethyl]-pyrrolidin-2-yl}-methanol], for which the pKi is greater than 6.00. `O=S1(=O)CCCCN1Cc1nc(Nc2ccc(C(F)(F)F)cc2)c2ccc(-c3ncccc3C(F)(F)F)cc2n1` [Compound 756, [2-(1,1-Dioxo-1λ^6-[1,2]thiazinan-2-ylmethyl)-7-(3-trifluoromethyl-pyridin-2-yl)-quinazolin-4-yl]-(4-trifluorornethyl-phenyl)-amine] had a pKi greater than 6.00. The result for `C[C@@H]1CN(Cc2nc(Nc3ccc(C(C)(C)C)cc3)c3ccc(-c4ncccc4C(F)(F)F)nc3n2)C[C@H](C)O1` [Compound 757, (4-tert-Butyl-phenyl)-[2-(2,6-dimethyl-morpholin-4-ylmethyl)-7-(3-trifluoromethyl-pyridin-2-yl)-pyrido[2,3-d]pyrimidin-4-yl]-amine (cis)] reads greater than 6.00; that for `CC(C)(C)c1ccc(Nc2nc(CN3CCC[C@H]3C(=O)O)nc3nc(-c4ncccc4C(F)(F)F)ccc23)cc1` [Compound 758, (S)-1-[4-(4-tert-Butyl-phenylamino)-7-(3-trifluoromethyl-pyridin-2-yl)-pyrido[2,3-d]pyrimidin-2-ylmethyl]-pyrrolidine-2-carboxylic acid], greater than 6.00; that for `O=C(c1nc(Nc2ccc(C(F)(F)F)cc2)c2ccc(-c3ncccc3C(F)(F)F)cc2n1)N1CCCCC1` [Compound 759, Piperidin-1-yl-[4-(4-trifluoromethyl-phenylamino)-7-(3-trifluoromethyl-pyridin-2-yl)-quinazolin-2-yl]I-methanone], greater than 6.00. The result for `CC(C)CCNC(=O)c1nc(Nc2ccc(C(F)(F)F)cc2)c2ccc(-c3ncccc3C(F)(F)F)cc2n1` [Compound 761, 4-(4-Trifluoromethyl-phenylamino)-7-(3-trifluoromethyl-pyridin-2-yl)-quinazoline-2-carboxylic acid (3-methyl-butyl)-amide] reads greater than 6.00; that for `COCCNC(=O)c1nc(Nc2ccc(C(F)(F)F)cc2)c2ccc(-c3ncccc3C(F)(F)F)cc2n1` [Compound 762, 4-(4-Trifluoromethyl-phenylamino)-7-(3-trifluoromethyl-pyridin-2-yl)-quinazoline-2-carboxylic acid (2-methoxy-ethyl)-amide], greater than 6.00; that for `O=C(NCCN1CCCC1)c1nc(Nc2ccc(C(F)(F)F)cc2)c2ccc(-c3ncccc3C(F)(F)F)cc2n1` [Compound 763, 4-(4-Trifluoromethyl-phenylamino)-7-(3-trifluoromethyl-pyridin-2-yl)-quinazoline-2-carboxylic acid (2-pyrrolidin-1-yl-ethyl)-amide], greater than 6.00.

As to `O=C(O)CNC(=O)c1nc(Nc2ccc(C(F)(F)F)cc2)c2ccc(-c3ncccc3C(F)(F)F)nc2n1` [Compound 764, {[4-(4-Trifluoromethyl-phenylamino)-7-(3-trifluoromethyl-pyridrn-2-yl)-pyrido[2,3-d]pyrimidine-2-carbonyl]-amino}-acetic acid], the pKi was greater than 6.00. The result for `O=C(O)CCNC(=O)c1nc(Nc2ccc(C(F)(F)F)cc2)c2ccc(-c3ncccc3C(F)(F)F)nc2n1` [Compound 765, 3-{[4-(4-Trifluoromethyl-phenylamino)-7-(3-trifluoromethyl-pyridin-2-yl)-pyrido[2,3-d]pyrimidine-2-carbonyl]-amino}-propionic acid] reads greater than 6.00. As to `O=C(O)CCCNC(=O)c1nc(Nc2ccc(C(F)(F)F)cc2)c2ccc(-c3ncccc3C(F)(F)F)nc2n1` [Compound 766, 4-{[4-(4-Trifluoromethyl-phenylamino)-7-(3-trifluoromethyl-pyridin-2-yl)-pyrido[2,3-d]pyrimidine-2-carbonyl]-amino}-butyric acid], the pKi is greater than 6.00.

Regarding `O=C(O)C1CCN(C(=O)c2nc(Nc3ccc(C(F)(F)F)cc3)c3ccc(-c4ncccc4C(F)(F)F)nc3n2)CC1` [Compound 767, 1-[4-(4-Trifluoromethyl-phenylamino)-7-(3-trifluoromethyl-pyridin-2-yl)-pyrido[2,3-d]pyrimidine-2-carbonyl]-piperidine-4-carboxylic acid], the pKi is greater than 6.00.

Consider `O=C(O)[C@@H]1CCCN1C(=O)c1nc(Nc2ccc(C(F)(F)F)cc2)c2ccc(-c3ncccc3C(F)(F)F)nc2n1` [Compound 768, (S)-1-[4-(4-Trifluoromethyl-phenylamino)-7-(3-trifluoromethyl-pyridin-2-yl)-pyrido[2,3-d]pyrimidine-2-carbonyl]-pyrrolidine-2-carboxylic acid], for which the pKi was greater than 6.00. The result for `CN1CCC(c2nc(Nc3ccc(C(C)(C)C)cc3)c3ccc(-c4ncccc4Cl)nc3n2)CC1` [Compound 769, (4-tert-Butyl-phenyl)-[7-(3-chloro-pyridin-2-yl)-2-(1-methyl-piperidin-4-yl)-pyrido[2,3-d]pyrimidin-4-yl]-amine] reads greater than 6.00. The result for `CC(C)c1ccc(Nc2nc(C3CCN(C)CC3)nc3nc(-c4ncccc4Cl)ccc23)cc1` [Compound 770, [7-(3-Chloro-pyridin-2-yl)-2-(1-methyl-piperidin-4-yl)-pyrido[2,3-d]pyrimidin-4-yl]-(4-isopropyl-phenyl)-amine] reads greater than 6.00; that for `CN1CCC(c2nc(Nc3ccc(C(F)(F)F)cc3)c3ccc(-c4ncccc4Cl)nc3n2)CC1` [Compound 771, [7-(3-Chloro-pyridin-2-yl)-2-(1-methyl-piperidin-4-yl)-pyrido[2,3-d]pyrimidin-4-yl]-(4-trifluoromethyl-phenyl)-amine], greater than 6.00; that for `C[C@@H]1CN(Cc2cc(Nc3ccc(C(F)(F)F)cc3)c3ccc(-c4ncccc4C(F)(F)F)nc3n2)C[C@H](C)O1` [Compound 773, [2-(2,6-Dimethyl-morpholin-4-ylmethyl)-7-(3-trifluoromethyl-pyridin-2-yl)-[1,8]naphthyridin-4-yl]-(4-trifluoromethyl-phenyl)-amine (cis)], greater than 6.00. The result for `CC1CCCN1Cc1cc(Nc2ccc(C(F)(F)F)cc2)c2ccc(-c3ncccc3C(F)(F)F)nc2n1` (centres unmarked) [Compound 774, [2-(2-Methyl-pyrrolidin-1-ylmethyl)-7-(3-trifluoromethyl-pyridin-2-yl)-[1,8]naphthyridin-4-yl]-(4-trifluoromethyl-phenyl)-amine] reads greater than 6.00; that for `COCCN(CCOC)Cc1cc(Nc2ccc(C(F)(F)F)cc2)c2ccc(-c3ncccc3C(F)(F)F)nc2n1` [Compound 775, [2-{[Bis-(2-methoxy-ethyl)-amino]-methyl}-7-(3-trifluoromethyl-pyridin-2-yl)-[1,8]naphthyridin-4-yl]-(4-trifluoromethyl-phenyl)-amine], greater than 6.00.

In turn, `FC(F)(F)c1ccc(Nc2cc(CN3CCCCC3)nc3nc(-c4ncccc4C(F)(F)F)ccc23)cc1` [Compound 799, [2-Piperidin-1-ylmethyl-7-(3-trifluoromethyl-pyridin-2-yl)-[1,8]naphthyridin-4-yl]-(4-trifluoromethyl-phenyl)-amine] showed a pKi greater than 6.00. The result for `FC(F)(F)c1ccc(Nc2cc(CN3CCOCC3)nc3nc(-c4ncccc4C(F)(F)F)ccc23)cc1` [Compound 800] reads greater than 6.00. `FC(F)(F)c1ccc(Nc2cc(CN3CCSCC3)nc3nc(-c4ncccc4C(F)(F)F)ccc23)cc1` [Compound 802, [2-Thiomorpholin-4-ylmethyl-7-(3-trifluoromethyl-pyridin-2-yl)-[1,8]naphthyridin-4-yl]-(4-trifluoromethyl-phenyl)-amine] showed a pKi greater than 6.00. The compound `CC1CCCCN1Cc1cc(Nc2ccc(C(F)(F)F)cc2)c2ccc(-c3ncccc3C(F)(F)F)nc2n1` (centres unmarked) [Compound 810, [2-(2-Methyl-piperidin-1-ylmethyl)-7-(3-trifluoromethyl-pyridin-2-yl)-[1,8]naphthyridin-4-yl]-(4-trifluoromethyl-phenyl)-amine] showed a pKi greater than 6.00. In turn, `CCC1CCCCN1Cc1cc(Nc2ccc(C(F)(F)F)cc2)c2ccc(-c3ncccc3C(F)(F)F)nc2n1` (centres unmarked) [Compound 812, [2-(2-Ethyl-piperidin-1-ylmethyl)-7-(3-trifluoromethyl-pyridin-2-yl)-[1,8]naphthyridin-4-yl]-(4-trifluoromethyl-phenyl)-amine] gave a pKi greater than 6.00. The result for `CCN(Cc1cc(Nc2ccc(C(F)(F)F)cc2)c2ccc(-c3ncccc3C(F)(F)F)nc2n1)C1CCCCC1` [Compound 813, [2-[(Cyclohexyl-ethyl-amino)-methyl]-7-(3-trifluoromethyl-pyridin-2-yl)-[1,8]naphthyridin-4-yl]-(4-trifluoromethyl-phenyl)-amine] reads greater than 6.00; that for `FC(F)(F)c1ccc(Nc2cc(CN3CC=CCC3)nc3nc(-c4ncccc4C(F)(F)F)ccc23)cc1` [Compound 816, [2-(3,6-Dihydro-2H-pyridin-1-ylmethyl)-7-(3-trifluoromethyl-pyridin-2-yl)-[1,8]naphthyridin-4-yl]-(4-trifluoromethyl-phenyl)-amine], greater than 6.00. As for `CN1CCN(Cc2cc(Nc3ccc(C(F)(F)F)cc3)c3ccc(-c4ncccc4C(F)(F)F)nc3n2)CC1` [Compound 817, [2-(4-Methyl-piperazin-1-ylmethyl)-7-(3-trifluoromethyl-pyridin-2-yl)-[1,8]naphthyridin-4-yl]-(4-trifluoromethyl-phenyl)-amine], the pKi was greater than 6.00.
